Active and inactive are the calls of the source. The rule behind the calls is not given here.
Experiment: modifiers of cytoskeleton assembly, confirmation, imaging, high-content imaging, retest and dose response (AID 1249);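 note: compound exposure lasted 24 h before fixation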;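 for inhibition: plate controls were untreated cells for no effect and reference compound treated cells for full effect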
Details: cell-based imaging, cytoskeleton assembly phenotype, high content; at 2 µM; stronger effect = higher value

Row | Compound | inhibition
1 | COc1ccc(N2C(=O)CC(NC3CCCCNC3=O)C2=O)cc1 (stereo unspecified) | -8.6% (inactive)
2 | O=C(O)c1cc2nc3c(c(C(F)(F)F)n2n1)CCc1ccccc1-3 | 3.7% (inactive)
3 | OCCCCNc1cccc2ccccc12 | -7.2% (inactive)
4 | COc1ccc(/C=N/NC(=O)c2ccccc2Cl)cc1CSc1nc2ccccc2s1 | -6.6% (inactive)
5 | COc1ccc(N=c2oc3ccc(OC)cc3cc2-c2nc3ccccc3[nH]2)cc1 | 4.3% (inactive)
6 | COc1ccc(Cn2c(CCC(=O)O)nc3cccnc32)cc1 | -3% (inactive)
7 | COc1ccc(CS(=O)(=O)/C(Cl)=C(/Cl)C(=O)Nc2ccc(OC)nc2)cc1 | -6.2% (inactive)
8 | Cc1cccc(OCCN2CSC(=S)N(C)C2)c1 | 2.2% (inactive)
9 | Cc1ccc(-c2nnc3ccc(SCC(=O)Nc4cc(C)on4)nn23)cc1 | -5.1% (inactive)
10 | O=S(=O)(c1cccc(-n2cnnn2)c1)N1CCOCC1 | -4.7% (inactive)
11 | CCCC(C(=O)NC1CCCC1)N(CCCN1CCOCC1)C(=O)c1snc(C(N)=O)c1N (stereo unspecified) | -2.3% (inactive)
12 | Cn1cc([N+](=O)[O-])c(C(=O)Nc2ccc3c(c2)OCCO3)n1 | -7.4% (inactive)
13 | CCOC(=O)N1CCN(C(=O)c2ccc3c(c2)NC(=O)C(N2CCOCC2)S3)CC1 (stereo unspecified) | -8.5% (inactive)
14 | COc1ccc(-c2cc3ccc(OCc4nn[nH]n4)cc3oc2=O)cc1OC | 2.8% (inactive)
15 | COc1ccccc1-c1cc(C(F)(F)F)nc(S(=O)(=O)CCCC(=O)N2CCCCC2C)n1 (stereo unspecified) | 7.4% (inactive)
16 | CCOC(=O)N1CCC(NC(=O)c2ccc(CNS(=O)(=O)c3ccc(F)cc3)cc2)CC1 | -3.7% (inactive)
17 | COc1cc2c(cc1NS(=O)(=O)N1CCCC1)oc1ccccc12 | 2.5% (inactive)
18 | COc1ccc(C(=O)C(CN2CCOCC2)c2ccccc2)cc1 (stereo unspecified) | 1.1% (inactive)
19 | O=C(N/N=C/c1ccncc1)c1ccccc1 | 1.1% (inactive)
20 | O=C(Cc1ccc(-n2cccc2)cc1)NC1CCCCCC1 | -6.9% (inactive)
21 | O=C(Oc1ccc2ccc(=O)oc2c1)N1CCOCC1 | -7.8% (inactive)
22 | CC1CCN(C(=O)C2c3ccccc3C(=O)N3CCc4ccccc4C23)CC1 (stereo unspecified) | -3.8% (inactive)
23 | CCCCCCOC(=O)NCC(O)c1ccccc1 (stereo unspecified) | 9.1% (inactive)
24 | COc1cc(/C=N/Nc2snc(SC)c2C#N)ccc1O | -6.6% (inactive)
25 | CC1(C)CC(=O)c2cc(OCC(=O)NCCCN3CCN(c4ccc(F)cc4)CC3)ccc2O1 | 8.9% (inactive)

Row | Compound | inhibition
26 | COc1ccc(CSc2nc3ccccc3[nH]2)cc1 | 9.9% (inactive)
27 | Cc1cc(NC(=O)CSc2nc(-c3ccco3)cc(C(F)(F)F)n2)no1 | -2.8% (inactive)
28 | O=C(O)C1CC=CCC1C(=O)N1CCCC1 (stereo unspecified) | 5.5% (inactive)
29 | Cc1ccn2c(NC(=O)c3ccco3)c(-c3ccccc3)nc2c1 | 12.5% (inactive)
30 | N#Cc1c(N)nc(SCC(=O)NCc2ccc3c(c2)OCO3)c(C#N)c1-c1cccs1 | 0.2% (inactive)
31 | C=C(C)c1cccc(C(C)(C)NC(=O)Nc2ncccn2)c1 | 1.8% (inactive)
32 | C=CCn1c(SCC(=O)Nc2ccc(C(=O)OCC)cc2)nnc1-c1sc(N)nc1C | -0.9% (inactive)
33 | O=C(CS(=O)(=O)c1cn(Cc2cccc(F)c2)c2ccccc12)N1CCCCC1 | -1.5% (inactive)
34 | Cc1cccc(CS(=O)(=O)c2nnc([C@H](Cc3ccccc3)NC(=O)OC(C)(C)C)o2)c1 | -5% (inactive)
35 | CC[C@@H](C)[C@H](NC(=O)OC(C)(C)C)c1nnc(S(=O)(=O)Cc2cc(C)ccc2C)o1 | -2.4% (inactive)
36 | N/C(Cc1cccs1)=N\OC(=O)COc1ccc(Br)cc1Cl | -3.7% (inactive)
37 | CCCOC(=O)C1C2C=C[C@]3(CN(CCc4ccccc4)C(=O)[C@H]13)O2 (stereo partly specified) | -9.4% (inactive)
38 | OCCN=C1CCCc2c1[nH]c1ccc(Br)cc21 | -20.7% (inactive)
39 | CSc1ccc(S(=O)(=O)Nc2ccc3c4c(cccc24)CC3)cc1 | -10% (inactive)
40 | O=C(CN1CCC(c2nc3ccccc3s2)CC1)NCc1cccs1 | 4% (inactive)
41 | Cc1ccc(-c2cc(C(=O)NCc3ccccn3)no2)cc1 | 3.6% (inactive)
42 | O=C(OCC(=O)N1CCN(c2ccccc2)CC1)c1ccc2ncsc2c1 | 0.2% (inactive)
43 | CCCCCCCC(=O)N/N=C(\C)c1cccnc1 | 2.2% (inactive)
44 | CCc1cccc(CC)c1N(COC)C(=O)Cn1ccccc1=N | -4.4% (inactive)
45 | COc1cc2c3c(c1OC)-c1cc(O)ccc1CC3NCC2 (stereo unspecified) | -1.7% (inactive)
46 | Cc1cccc(N=C2NC(=O)CS2)c1C | 7% (inactive)
47 | CCOc1cc(C(=O)Nc2cccc3ncccc23)cc(OCC)c1OCC | -20.6% (inactive)
48 | Cc1ccccc1-c1cc(-c2ccccc2O)on1 | -5.9% (inactive)
49 | COc1cccc(/C=N/Nc2nc(Nc3ccccc3)nc(-n3nc(C)cc3C)n2)c1O | 1.2% (inactive)
50 | CCNc1nc(OC)nc(Oc2ccc(C(=O)OC)cc2)n1 | -22.8% (inactive)

Row | Compound | inhibition
51 | COc1ccc(-c2nc(C#N)c(NCCCN(C)C)o2)cc1OC | 4.5% (inactive)
52 | CCOc1ccc(C(=O)C(c2ccccc2)N2CCOCC2)cc1 (stereo unspecified) | 4.3% (inactive)
53 | COC(=O)Sc1nc(N2CCOCC2)c2c(c1C#N)CC(C)(C)OC2 | 4.8% (inactive)
54 | COC(=O)CN(c1ccc(F)cc1)S(=O)(=O)c1ccc2c(c1)OCCO2 | 10.7% (inactive)
55 | Cc1ccc(Nc2nc(CSc3nnnn3C)cs2)cc1 | -5.6% (inactive)
56 | Cc1cc(C(=O)NN=C2C3CC4CC(C3)CC2C4)c2ccccc2n1 | -3.8% (inactive)
57 | O=C(COC(=O)c1ccccc1C(=O)c1ccc(Cl)c([N+](=O)[O-])c1)NC1CCCCCC1 | -8.3% (inactive)
58 | CCN(Cc1cc2cc(C)ccc2[nH]c1=O)C(=O)c1cccc(OC)c1 | 2.3% (inactive)
59 | Cn1c(SCC(=O)NC2CCCCC2)nnc1-c1cccc(N)c1 | -8.2% (inactive)
60 | N#Cc1nc(-c2ccco2)oc1N1CCOCC1 | 3.4% (inactive)
61 | O=C1c2oc3ccccc3c(=O)c2C(c2cccc(F)c2)N1CCCO (stereo unspecified) | 6.3% (inactive)
62 | COc1ccc(S(=O)(=O)NC(CC(=O)NCc2ccco2)C(C)C)cc1 (stereo unspecified) | -5.2% (inactive)
63 | O=C(OCn1ncc(Br)c(Br)c1=O)c1ccc(F)cc1 | 10.9% (inactive)
64 | CCOc1ccccc1C(=O)NCCC(=O)O | 10.6% (inactive)
65 | O=C1C2CCCN2C(c2cccnc2)N1c1ccc(Cl)c(Cl)c1 (stereo unspecified) | 3.6% (inactive)
66 | COCCNC(=O)C(c1cccs1)N(Cc1cccs1)C(=O)Cn1nnc2ccccc21 (stereo unspecified) | -4.6% (inactive)
67 | CC(=O)Nc1ccc(S(=O)(=O)n2cnc(C)c2)cc1 | 6.7% (inactive)
68 | CC(=NCCCO)c1c(O)n(Cc2ccccc2)c(=O)[nH]c1=O | 3.6% (inactive)
69 | COC(=O)c1ccccc1NC(=O)c1ccc(-c2cccc(Cl)c2)o1 | 2.6% (inactive)
70 | COc1cc(C(=O)N2CCN(c3cc(Cl)ccc3Cl)CC2)cc(OC)c1OC | -2.9% (inactive)
71 | CSc1ccc(CNC2CN3CCC2CC3)cc1 (stereo unspecified) | 1.5% (inactive)
72 | Nc1nc2c3ccccc3nc(Cc3ccccc3)n2n1 | 3.4% (inactive)
73 | CO/N=C/C(=N\Nc1ccc(C)cc1)C(=O)c1ccc(OC)cc1 | -0.5% (inactive)
74 | Cc1cccc(N(CC(=O)N/N=C/c2ccc(OCC(=O)NCc3ccco3)cc2)S(C)(=O)=O)c1C | -6.2% (inactive)
75 | Cc1cc(NC(=O)C2C3C=CC(C3)C2C(=O)O)no1 (stereo unspecified) | 0.1% (inactive)

Row | Compound | inhibition
76 | CCC(=O)Nc1cccc(NC(=O)c2cc3ccccc3o2)c1 | -5.6% (inactive)
77 | N=c1c2c(-c3ccccc3)c(-c3ccccc3)n(Cc3ccccc3)c2ncn1CCCn1ccnc1 | -9.6% (inactive)
78 | O=C(O)c1cccc(S(=O)(=O)Nc2ccccc2Cl)c1 | -2.5% (inactive)
79 | Clc1ccc2nc(CSc3nc4ccccc4o3)cn2c1 | 14.4% (inactive)
80 | CCOC(=O)c1cnn(-c2nc(CC)nc3sc4c(c23)CCC4)c1N | -4.7% (inactive)
81 | CCOC(=O)Cc1csc(SCC(=O)/C(C#N)=C(\C)N)n1 | -9.5% (inactive)
82 | O=C(NC(Cc1c[nH]c2ccccc12)C(=O)O)c1ccco1 (stereo unspecified) | -3% (inactive)
83 | Cc1ccc(F)cc1NC(=O)c1ccc2c(c1)OCO2 | -1.6% (inactive)
84 | CC(C)(C)NS(=O)(=O)c1ccc(Oc2ncc(C(F)(F)F)cc2Cl)cc1 | 12.1% (inactive)
85 | COc1ccc(CC(=O)Nc2ccc(-c3noc(-c4cccc(OC)c4)n3)cc2)cc1 | 13.6% (inactive)
86 | Cc1ccc(NS(=O)(=O)c2cc(C(=O)NCCSC3CCCCC3)ccc2C)cc1 | -1.3% (inactive)
87 | COc1cccc(C(C#N)N2CCCCC2)c1O (stereo unspecified) | 1.4% (inactive)
88 | Cc1ccc(CSc2nc3ccccc3cc2C=O)cc1 | -4% (inactive)
89 | Cc1c(Cl)cccc1-n1ccnc1SCC(=O)O | 2.2% (inactive)
90 | O=C(NC(Nc1nc2ccc([N+](=O)[O-])cc2s1)(C(F)(F)F)C(F)(F)F)c1ccccc1 | -15.3% (inactive)
91 | COC1(c2ccccc2)NC(=S)NN=C1c1ccccc1 (stereo unspecified) | -7.4% (inactive)
92 | COc1cc(CC(=O)Nc2ncc(C)s2)cc(OC)c1OC | -7.4% (inactive)
93 | Cn1nc(CC(=O)NC2CCCCCC2)c2ccccc2c1=O | -17.6% (inactive)
94 | O=C1C(Cc2ccccc2)NC(=S)N1c1ccccc1 (stereo unspecified) | 3.1% (inactive)
95 | Cc1noc(C)c1S(=O)(=O)N1CCC2(CC1)OCCO2 | -7.2% (inactive)
96 | O=Cc1cc2ccccc2nc1SCc1ccc(Cl)cc1 | 8.6% (inactive)
97 | COc1ccc(C(c2sc3ncnn3c2O)N2CC(C)OC(C)C2)cc1OC (stereo unspecified) | 5% (inactive)
98 | O=C1CC(N2CCN(Cc3ccc4c(c3)OCO4)CC2)C(=O)N1c1ccccc1 (stereo unspecified) | -6.6% (inactive)
99 | O=C(NC(NC1CCS(=O)(=O)C1)C(=O)c1cccs1)c1ccccc1 (stereo unspecified) | 6.8% (inactive)

Same assay, conditions: cell-based imaging, cytoskeleton assembly phenotype, high content; cell count; at 10 µM; stronger effect = lower value

Row | Compound | cell count
100 | CCOc1ccc(C2=Nn3c(nnc3-c3ccccc3OC)SC2)cc1 | 36.3%
101 | Cc1cccc2cc(C#N)c(SCC(=O)N3CC(=O)Nc4ccccc43)nc12 | 67.8%

From PubChem BioAssay AID1249 (Columbia University Molecular Screening Center, 2008)
